Data taken from patent publication US20120136033A1, “Small Molecule Antagonists of Phosphatidylinositol-3,4,5-Triphosphate (PIP3) and Uses Thereof” (President and Fellows of Harvard College, priority 2009, published 2012).
Blank lines part the entries; values can stand above or below the molecule they belong to.

Experiments:
[1] = test system: PH domains of Akt, PDK1, and IRS1; conditions: cited from earlier work
[2] = cited from earlier work
[3] = test system: SV40-transformed mouse adult lung fibroblasts; assay: loss of viability, Akt1-expressing vs Akt1-3 triple knockout lung fibroblasts; assay type: cell-based; conditions: P<0.01
Source text: Shaughnessy J D (2008) Nature 454:172-3; Weinstein I G (2002) Science 297:63-4. Therefore, the possibility that PIT-1 may cause preferential cell death in the cells containing elevated PIP3 levels was examined. […] Li D M et al. (1998) Proc Natl Acad Sci USA 95:15406-11. […] This observation is consistent with the notion that PTEN-deficient cancer cells become overly dependent on PIP3 signaling and, therefore, are hypersensitive to disruption of this pathway compared to wild-type PTEN-expressing cells. Neshat M S et al. (2001) Proc Natl Acad Sci USA 98:10314-9.

[4] = test system: cells; assay: cell death with inhibitors of mitochondrial respiration and ATP synthase; assay type: cell-based
Source text: Elstrom R L et al. (2004) Cancer Res 64:3892-9.

[5] = test system: human cancer cells; assay: transwell (Boyden chamber) migration of cancer cells; assay type: cell-based
Procedure: Two models of cell migration were used, a transwell migration model and a wound closure model. Migration of cancer and endothelial cells was evaluated using 24-transwell Boyden chamber (Costar, Bedford, Mass.) with a polystyrene membrane (6.5 mm diameter, 10 μm thickness, and 8 μm pore size). Cells were suspended in serum-free media and seeded in the upper compartment of each well (2×10^4 cells/well) in the presence or absence of different compounds at the indicated concentrations. The lower compartment contained 600 μl of serum-free culture media supplemented with growth factors. After an 8-hr incubation at 37° C., cells were fixed and stained with 0.1% crystal violet. Non-migrating cells on the upper surface of the filter were removed, and the stained cells that migrated to the lower side were photographed using a phase-contrast microscope (Nikon, Japan) in five random fields. The cells were lysed with 10% acetic acid, and colorimetric determination was made at 595 nm using Wallac Victor 3 plate reader.

[6] = test system: PI3K-PDK1-Akt pathway; assay: PI3K-PDK1-Akt pathway phosphorylation events in U87MG cells; assay type: cell-based, human
Procedure: The effect of PIT-1 on PIP3-mediated signaling was examined in U87MG glioblastoma cells, which show elevated basal levels of PIP3 due to the loss of PTEN. Pore N et al. (2003) Cancer Res 63:236-41.

[7] = test system: U87MG cells; assay: U87MG cell viability, ATP assay; assay type: cell-based, human
Procedure: U87MG cells were incubated with PITs (12.5-100 μM) for 48 hr. Cell viability was determined using ATP assay.
Based on the critical role of PIP3-dependent Akt signaling in the regulation of cell survival, the effect of PIT-1 on the cancer cell viability was tested. Cancer cells were seeded into 96-well plates (white plates for ATP assay; black plates for fluorescent assay; clear plates for MTS assay) at the density of 5-10×10^3 cells per well in 100 μl of the appropriate media. Compounds were added at a series of concentrations and incubated for different times. For the ATP assay, a luminescence-based commercial kit (CellTiter-Glo, Promega, Madison, Wis.) was used. Thirty microliters of cell lysis/ATP detection reagent was added to each well, mixed for 10 min at room temperature, and the luminescence was measured using a Wallac Victor 3 plate reader (Perkin-Elmer, Wellesley, Mass.). For the MTS assay, a CellTiter 96 AQueous Non-Radioactive Cell Proliferation Assay Kit (Promega, Madison, Wis., USA) was used. Twenty microliters of the combined MTS/PMS solution was added into each well, incubated for 4 hr at 37° C., and the absorbance at 490 nm was measured using a Wallac Victor 3 plate reader. For the Sytox cell death assay, measuring loss of plasma membrane integrity, cells were incubated with 1 μM Sytox Green reagent (Molecular Probes, Eugene, Oreg.) for 30 min at 37° C. and the fluorescence intensity was measured using Wallac Victor 3 plate reader with excitation at 485 nm and emission at 545 nm. Next, 5 μl of 20% (v/v) Triton X-100 solution was added to each well and incubated for 1 hr at 37° C., and the signal was measured again. The ratio of values (percentage of dead cells in each well) before and after Triton X-100 treatment was calculated and normalized to the relevant controls not subjected to the cytotoxic stimuli. IC50 values were determined using Origin6 software (MicroCal, LLC, Northampton, Mass.).

[8] = solubility / precipitation; assay type: physicochemical; conditions: 300 μM, unencapsulated, cell media
Source text: This method has been reported to be efficient for in vivo targeting of cancer cells by other poorly soluble anti-cancer drugs, such as m-porphyrin, tamoxifen, and taxol. Gao Z et al. (2003) J Drug Target 11:87-92; Torchilin V P et al. (2003) Proc Natl Acad Sci USA 100:6039-44.
The size of the DM-PIT-1-loaded micelles was about 15 nm with a narrow size distribution.

[9] = test system: 4T1 breast cancer; assay: syngeneic 4T1 breast tumor growth in BALB/c mice; assay type: in vivo, mouse
Procedure: After inoculation of tumor cells, DM-PIT-1 or DM-PIT-1-M were administered i.v. daily at doses of 0.4 mg/kg and 1 mg/kg, respectively, for 8 days. Tumor volumes as measured every two days are shown.
The effect of intravenous (i.v.) administration of both unencapsulated DM-PIT-1 in PBS and DM-PIT-1-M on the syngeneic 4T1 breast cancer growth in BALB/c mice was examined. 4T1 metastatic breast cancer cells were first cultured in vitro in DMEM medium containing 10% FBS and antibiotics. After re-suspension in PBS, the 4T1 cancer cells (8×10^4) were injected s.c. into axillary regions of BALB/c mice. The treatment with PIT-1 began on day 11 after inoculation of tumor cells, i.e., when tumors were palpable, but before tumors are precisely measurable (˜50 mm^3). Working solutions of all PIT-1-formulations were made in sterile 0.9% NaCl before injection into mice. Free DM-PIT-1 and micellar DM-PIT-1 were administered i.v. daily at doses of 0.4 and 1 mg/kg, respectively, for 8 days. If the tumor size reached approx. 1000 mm^3, the mice were euthanized using carbon dioxide (CO2) prior to cervical dislocation. Seven mice per group were used. The tumor volume (V) was measured every two days by microcaliper for 8 days. Tumor volume was calculated according to the formula ([…])/2, where α is the longest and b is the shortest diameter of tumor, respectively.

[10] = test system: CD31; assay: tumor angiogenesis in vivo, microvasculature marker CD31; conditions: mouse
Procedure: Tumor tissues were fixed in phosphate-buffered formalin, embedded in paraffin, cut in 4 μM thickness, and applied to slides. The slides were deparaffinized in xylenes using three changes for 5 min each, and hydrated gradually through graded alcohols: 100% ethanol twice for 10 min each, 95% ethanol twice for 10 min each, and then deionized water for 1 min with stirring. For antigen unmasking, slides were placed in a container, covered with 10 mM sodium citrate buffer, pH 6.0, and heated in a convection steamer for 1 hr. The slides were washed in deionized water three times for 2 min each, blocked with 5% normal goat blocking serum for 30 min, incubated with goat anti-CD31 primary antibody for 1 hr, and incubated with an Alexa Fluor 488-conjugated secondary antibody for 30 min. The slides were analyzed and photographed using a fluorescent microscope. TUNEL staining was performed using FragEL kit according to manufacturer's instructions (Calbiochem).
In view of the significant inhibitory effect of PIT-1 on angiogenesis observed in vitro, the extent of angiogenesis in DM-PIT-1-treated tumors was examined in vivo using microvasculature marker CD31. […] Suppression of angiogenesis also likely contributed to the suppression of tumor growth by DM-PIT-1 treatment in vivo, considering a relatively low dose of the compound used in the experiments.

[11] = test system: U87MG cells; assay: sensitization of U87MG cells to killing by TRAIL, ATP assay; assay type: cell-based, human
Procedure: FIG. 10 is a bar graph depicting that PITs, as well as Akt inhibitor VIII, sensitize U87MG cells to killing by TRAIL. U87MG cells were incubated with 50 μM PIT-1, PIT-2, PIT-1i-1 or 10 μM Akt inhibitor VIII in the presence or absence of 10 ng/ml TRAIL for 48 hr, followed by cell viability analysis using ATP assay.
Based on the critical role of PIP3-dependent Akt signaling in the regulation of cell survival, the effect of PIT-1 on the cancer cell viability was tested. Cancer cells were seeded into 96-well plates (white plates for ATP assay; black plates for fluorescent assay; clear plates for MTS assay) at the density of 5-10×10^3 cells per well in 100 μl of the appropriate media. […] For the ATP assay, a luminescence-based commercial kit (CellTiter-Glo, Promega, Madison, Wis.) was used. Thirty microliters of cell lysis/ATP detection reagent was added to each well, mixed for 10 min at room temperature, and the luminescence was measured using a Wallac Victor 3 plate reader (Perkin-Elmer, Wellesley, Mass.). […] Twenty microliters of the combined MTS/PMS solution was added into each well, incubated for 4 hr at 37° C., and the absorbance at 490 nm was measured using a Wallac Victor 3 plate reader. […] Next, 5 μl of 20% (v/v) Triton X-100 solution was added to each well and incubated for 1 hr at 37° C., and the signal was measured again. […]

Molecule: CC1=NN(C(=O)c2ccc(Cl)cc2)C(=O)C1N=Nc1ccc(S(=O)(=O)Nc2ncccn2)cc1 (centres unmarked) [NSC 348900, 4-[1-(4-chlorobenzoyl)-3-methyl-5-oxo-4,5-dihydro-1H-pyrazol-4-ylazo]-N-pyrimidine-2-yl-benzenesulfonamide]
- interaction with PH domains of Akt, PDK1, and IRS1 [1]: capable of interacting
- in vivo anti-tumor activity [2]: lacked in vivo anti-tumor activity

Molecule: O=c1[nH]c2ccccc2n1C1CCN(Cc2ccc(-c3nc4cc5[nH]cnc5cc4nc3-c3ccccc3)cc2)CC1 [Akt kinase inhibitor VIII, reference compound]
- loss of viability in Akt1-expressing fibroblasts compared to Akt1-3 triple knockout cells [3]: comparable
- synergy with oligomycin, antimycin A and rotenone in inducing cell death [4]: synergized
- inhibition of cancer cell migration ([5]; transwell / wound healing models): lack thereof

- precipitation in cell media at 300 μM [8]: significant precipitation
Molecule: Cc1cc(C)cc(C(=O)NC(=S)Nc2cc([N+](=O)[O-])ccc2O)c1 [DM-PIT-1]
- activity compared to PIT-1 in inhibition of PI3K-PDK1-Akt signaling [6]: increased activity
- activity compared to PIT-1 in inducing cell death in U87MG cells [7]: increased activity
- activity compared to PIT-1 in inhibition of cell migration [5]: increased activity
- tumor growth in vivo compared to control ([9]; 8-day administration, P<0.01): significantly attenuated tumor growth
- reduction of tumor volume as compared to control ([9]; day 8, i.v. daily, free 0.4 mg/kg, micellar 1 mg/kg): 58.1%
- tumor volume ([9]; day 8, i.v. daily, free 0.4 mg/kg, micellar 1 mg/kg, control 902.5±153): 380±52.3 mm^3
- CD31 loci in treated tumors (angiogenesis in vivo) [10]: attenuation of a number of CD31 loci

B1: TRAIL: Tumor necrosis factor (TNF)-related apoptosis-inducing ligand, 281 amino acid-long member of the TNF family of cytokines (protein, UniProt P50591 1-281, looked up)
chain: MAMMEVQGGPSLGQTCVLIVIFTVLLQSLCVAVTYVYFTNELKQMQDKYSKSGIACFLKEDDSYWDPNDEESMNSPCWQVKWQLRQLVRKMILRTSEETISTVQEKQQNISPLVRERGPQRVAAHITGTRGRSNTLSSPNSKNEKALGRKINSWESSRSGHSFLSNLHLRNGELVIHEKGFYYIYSQTYFRFQEEIKENTKNDKQMVQYIYKYTSYPDPILLMKSARNSCWSKDAEYGLYSIYQGGIFELKENDRIFVSVTNEHLIDMDHEASFFGAFLVG
modifications: full-length
notes: Tumor necrosis factor (TNF)-related apoptosis-inducing ligand, 281 amino acid-long member of the TNF family of cytokines
- sensitivity of U87MG cells to TRAIL alone [11]: entirely resistant
